Positions count from the first letter of the chain named. Read-outs that look alike come from different tables or passages of the source. Marks after values point to notes of the source that are not given here. Residues, ends and D or L forms follow the SMILES beside them.
Tests used:
human panels = settings: molar basis, cited from earlier work
hTAS1R2-VFT = target: T1, hTAS1R2-VFT (Homo sapiens, UniProt Q8TE23); assay: Intrinsic tryptophan fluorescence ligand binding, hTAS1R2-VFT
T1 construct: followed by hTAS1R2-VFT (Ala22-Ser493) and another His6-tag at the C-terminus; His6 (thrombin-cleavable) (N); made in house
T1 sequence (Q8TE23 22-493): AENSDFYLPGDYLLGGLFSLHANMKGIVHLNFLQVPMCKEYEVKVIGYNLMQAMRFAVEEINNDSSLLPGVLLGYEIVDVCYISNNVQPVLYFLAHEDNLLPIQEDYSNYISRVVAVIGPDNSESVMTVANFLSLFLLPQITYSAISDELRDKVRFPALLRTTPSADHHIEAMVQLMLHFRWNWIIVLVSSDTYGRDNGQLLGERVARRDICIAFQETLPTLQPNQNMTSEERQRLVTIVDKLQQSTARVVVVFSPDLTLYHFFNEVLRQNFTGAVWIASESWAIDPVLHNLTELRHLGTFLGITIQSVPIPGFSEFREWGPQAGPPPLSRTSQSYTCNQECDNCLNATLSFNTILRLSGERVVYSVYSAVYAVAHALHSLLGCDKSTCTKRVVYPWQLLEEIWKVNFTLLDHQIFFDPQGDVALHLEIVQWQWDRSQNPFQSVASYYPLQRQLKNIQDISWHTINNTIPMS
Excerpt: Therefore, we tested the binding affinity of hTAS1R2-VFT using an intrinsic tryptophan fluorescence assay. This approach allows one to measure protein–ligand interactions by measuring the fluorescence emitted by tryptophan residues upon the titration of sweet ligands. This technique is very sensitive to changes in the local environment of fluorescent amino acid residues within a protein and has been used to measure protein–ligand binding interactions with mouse, human and cat TAS1R-VFTs. For this purpose, we determined the concentration response relationships for the intrinsic tryptophan fluorescence of hTAS1R2-VFT upon the addition of various sweet compounds.
Figure 4 Binding properties of hTAS1R2-VFT assessed by intrinsic tryptophan fluorescence. Titration curves of hTAS1R2-VFT were generated with natural sugars (pink circles) or sweeteners (blue circles). Circles show experimental data, while the solid lines are the computed binding curves; excitation and emission wavelengths were 295 nm and 340 nm, respectively; hTAS1R2-VFT concentration, 0.5 µM. Data points correspond to the means ± SEMs of at least 12 independent replicates of at least three independently refolded protein samples, except for glucose, 6 independent replicates over three independently refolded protein samples.
All measurements were conducted at 20 °C using a Cary Eclipse spectrofluorimeter (Agilent Technologies, Santa Clara, CA, USA) equipped with a Peltier temperature control unit with a 5 nm bandwidth for emission and excitation. Ligand binding experiments with 0.5 µM hTAS1R2-VFTs were performed in buffer composed of 50 mM Tris-HCl pH 8, 150 mM NaCl, 0.5 mM DDM and 1 mM DTT. The intrinsic fluorescence of hTAS1R2-VFTs was measured at an excitation wavelength of 295 nm, and emission spectra were recorded from 320 to 380 nm. Fluorescence emission values were collected at 340 nm wavelength in the presence and absence of sweet ligands. A range of ligand concentrations were freshly prepared in 50 mM Tris-HCl pH 8.0. For titration experiments, successive 0.4 µL aliquots of sweeteners were added to 400 µL of hTAS1R2-VFT solution. Fluorescence measurements were corrected for bleaching, dilution and nonspecific buffer quenching. The dissociation constants (Kd) were calculated from a plot of the ratio between the fluorescence intensity variation and the maximum fluorescence intensity variation (ΔF/ΔFmax) versus the concentration of the total ligand. Assuming that the binding of hTAS1R2-VFT to sweet compounds is described by a one-site binding model, the Kd values of ligand–receptor interactions were determined with a standard nonlinear regression method using SigmaPlot 12.5 software (Systat Software, Inc., San Jose, CA, USA) as previously described. For each ligand, the experiment was repeated on at least twelve cells over at least three different batches of refolded hTAS1R2-VFT.

[1] = system: full-length hTAS1R2/hTAS1R3 receptor E382A; design: method as in PMID 22536376; settings: cellular assays; cited from earlier work
[2] = target: T2, human TAS1R2/TAS1R3 receptor (Homo sapiens, UniProt Q7RTX0+Q8TE23); settings: cellular assays, cited from earlier work
T2 sequence (Q8TE23 20-839): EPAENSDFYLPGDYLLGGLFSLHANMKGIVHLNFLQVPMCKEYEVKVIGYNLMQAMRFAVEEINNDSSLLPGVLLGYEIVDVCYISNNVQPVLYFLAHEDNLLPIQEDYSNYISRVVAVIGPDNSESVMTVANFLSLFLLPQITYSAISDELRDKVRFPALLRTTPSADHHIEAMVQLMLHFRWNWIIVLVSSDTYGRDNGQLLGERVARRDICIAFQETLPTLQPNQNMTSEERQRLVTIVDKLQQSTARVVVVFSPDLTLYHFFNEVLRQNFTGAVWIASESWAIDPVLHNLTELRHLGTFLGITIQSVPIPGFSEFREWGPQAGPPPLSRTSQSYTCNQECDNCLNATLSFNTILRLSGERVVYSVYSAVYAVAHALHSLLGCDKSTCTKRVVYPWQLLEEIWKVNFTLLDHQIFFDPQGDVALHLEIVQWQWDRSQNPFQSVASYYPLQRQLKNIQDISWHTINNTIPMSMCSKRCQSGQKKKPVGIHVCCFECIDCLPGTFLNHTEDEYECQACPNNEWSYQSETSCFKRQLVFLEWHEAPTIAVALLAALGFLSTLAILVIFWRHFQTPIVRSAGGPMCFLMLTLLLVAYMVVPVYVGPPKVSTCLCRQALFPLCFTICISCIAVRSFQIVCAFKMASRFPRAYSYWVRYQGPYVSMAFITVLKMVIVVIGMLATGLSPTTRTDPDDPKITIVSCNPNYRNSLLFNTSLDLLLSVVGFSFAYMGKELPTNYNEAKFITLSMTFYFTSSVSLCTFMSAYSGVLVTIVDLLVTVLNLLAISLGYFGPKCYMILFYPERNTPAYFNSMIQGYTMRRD
T2 sequence (Q7RTX0 21-852): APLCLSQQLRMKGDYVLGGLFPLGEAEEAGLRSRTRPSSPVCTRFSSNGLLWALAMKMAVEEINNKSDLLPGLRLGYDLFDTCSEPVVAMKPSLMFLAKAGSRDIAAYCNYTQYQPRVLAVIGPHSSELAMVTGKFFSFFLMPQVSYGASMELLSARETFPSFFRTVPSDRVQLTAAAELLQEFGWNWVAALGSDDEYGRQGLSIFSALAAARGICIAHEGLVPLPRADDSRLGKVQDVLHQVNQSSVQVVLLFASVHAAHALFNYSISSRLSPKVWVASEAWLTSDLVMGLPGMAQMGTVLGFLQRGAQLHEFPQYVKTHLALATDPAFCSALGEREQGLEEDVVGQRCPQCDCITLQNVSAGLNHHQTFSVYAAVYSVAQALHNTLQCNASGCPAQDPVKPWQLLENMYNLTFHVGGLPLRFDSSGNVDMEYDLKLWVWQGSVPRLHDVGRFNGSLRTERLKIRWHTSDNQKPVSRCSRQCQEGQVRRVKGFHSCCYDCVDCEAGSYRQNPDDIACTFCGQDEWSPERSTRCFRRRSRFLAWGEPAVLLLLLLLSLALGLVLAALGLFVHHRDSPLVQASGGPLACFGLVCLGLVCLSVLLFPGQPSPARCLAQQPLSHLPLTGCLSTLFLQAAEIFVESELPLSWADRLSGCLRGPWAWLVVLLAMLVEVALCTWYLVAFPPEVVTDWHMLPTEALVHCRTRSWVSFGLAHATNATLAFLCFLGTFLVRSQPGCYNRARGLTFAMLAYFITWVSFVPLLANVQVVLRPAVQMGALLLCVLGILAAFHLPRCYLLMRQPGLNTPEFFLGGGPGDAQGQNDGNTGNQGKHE

hTAS1R2-VFT-D278A = target: T3, hTAS1R2-VFT-D278A (Homo sapiens, UniProt Q8TE23, D278A); assay: Intrinsic tryptophan fluorescence ligand binding, mutant D278A; settings: Table 2, read-out: Apparent Kd hTAS1R2-VFT-D278A
T3 construct: followed by hTAS1R2-VFT (Ala22-Ser493) and another His6-tag at the C-terminus; His6 (thrombin-cleavable) (N); made in house
T3 sequence (Q8TE23 22-493 D278A): T1 sequence (Q8TE23 22-493) with D257A
Excerpt: To further confirm that the binding is specific, we performed mutagenesis studies on hTAS1R2-VFT. […] We performed ligand-binding titration assays in the same way as for hTAS1R2-VFT for the two point mutants.
Figure 5 Titration curves of hTAS1R2-VFT-D278A (blue triangles) and hTAS1R2-VFT (black circles) with sucralose (A) and aspartame (B). Circles and triangles show experimental data, while the solid lines are the computed binding curves. Wild-type receptor dose–responses are the same as for Figure 4. Data points correspond to the means ± SEMs of at least 12 independent replicates of at least three independently refolded protein samples.
All measurements were conducted at 20 °C using a Cary Eclipse spectrofluorimeter (Agilent Technologies, Santa Clara, CA, USA) equipped with a Peltier temperature control unit with a 5 nm bandwidth for emission and excitation. Ligand binding experiments with 0.5 µM hTAS1R2-VFTs were performed in buffer composed of 50 mM Tris-HCl pH 8, 150 mM NaCl, 0.5 mM DDM and 1 mM DTT. The intrinsic fluorescence of hTAS1R2-VFTs was measured at an excitation wavelength of 295 nm, and emission spectra were recorded from 320 to 380 nm. Fluorescence emission values were collected at 340 nm wavelength in the presence and absence of sweet ligands. […] Fluorescence measurements were corrected for bleaching, dilution and nonspecific buffer quenching. […]

[3] = system: full-length hTAS1R2/hTAS1R3 receptor D278A; design: method as in PMID 22536376; settings: cellular-based assay; cited from earlier work
[4] = target: T2, human TAS1R2/TAS1R3 receptor; assay: Cellular-based assay of the sweet taste receptor (EC50); type: cell-based
Excerpt: We determined its affinity constants for natural sugars using dose–response curves.

human TAS1R3-VFT = target: human TAS1R3-VFT; design: method as in PMID 22450161; settings: cited from earlier work
[5] = in water equivalent to 5% sucrose, ref Shallenberger, 1993
[6] = Table 1, intrinsic fluorescence, 0.5 µM protein, 20 °C, pH 8, read-out: hTAS1R2-VFT (Kd)
[7] = in water equivalent to 2% sucrose, ref Schiffman and Gatlin, 1993
[8] = in water equivalent to 2% sucrose, ref Bassoli et al., 2002

Compound | Kd (hTAS1R2-VFT; [6]) [µM] | Sweetness Potency (human panels; [7]) | other results
OC[C@H]1O[C@@H](O[C@H]2[C@H](O)[C@@H](O)C(O)O[C@@H]2CO)[C@H](O)[C@@H](O)[C@H]1O (mixture of isomers) [Lactose] | > 70000 |  | Sweetness Potency (human panels; [5]): 0.3 ^f
CC1=CC(=O)NS(=O)(=O)O1 [Acesulfame-K] | 0.9 ± 0.2 | 200 ^e | effect of E382A on the full-length receptor response [1]: abolishes
C[C@@H](NC(=O)[C@@H](N)CC(=O)O)C(=O)NC1C(C)(C)SC1(C)C [Alitame] | 0.15 ± 0.03 | 4500 ^e | EC50 ([2]; ref unpublished data obtained from collaborators): 13.8 ± 0.3 µM
COC(=O)[C@H](Cc1ccccc1)NC(=O)[C@@H](N)CC(=O)O [Aspartame] (H-Asp-Phe-OMe) | 17.2 ± 3.1 | 250 ^e | Kd (hTAS1R2-VFT-D278A): 223 ± 27.7 µM; effect of D278A on the full-length receptor response [3]: decrease the response; EC50 ([2]; ref Masuda et al., 2012): 75 ± 11 µM
O=S(=O)(O)NC1CCCCC1 [Cyclamate] |  | 26 ^e | 
O=C(CO)[C@@H](O)[C@H](O)[C@H](O)CO [Fructose] |  | 0.7 ^e | EC50 [4]: 8000 ± 4000 µM; Kd (hTAS1R2-VFT): 900 ± 200 µM
OC[C@H]1OC(O)[C@H](O)[C@@H](O)[C@@H]1O (some centres unmarked) [Glucose] | 1500 ± 300 |  | Sweetness Potency (human panels; [5]): 0.6 ^f
COC(=O)[C@H](Cc1ccccc1)NC(=O)[C@H](CC(=O)O)NCCC(C)(C)C [Neotame] | 0.09 ± 0.02 |  | Sweetness Potency (human panels; [8]): 11,000 ^g
C=C(C)[C@@H]1CC=C(/C=N/O)CC1 [Perillartine] |  |  | Sweetness Potency (human panels; [8]): 1000 ^g; EC50 ([2]; ref Belloir et al., 2021): 2.54 ± 0.48 µM
O=C1NS(=O)(=O)c2ccccc21 [Saccharin] |  | 500 ^e | 
OC[C@H]1O[C@H](O[C@]2(CCl)O[C@H](CCl)[C@@H](O)[C@@H]2O)[C@H](O)[C@@H](O)[C@H]1Cl [Sucralose] | 7 ± 1.3 | 600 ^e | effect of D278A on the full-length receptor response [3]: abolish the response; effect of E382A on the full-length receptor response [1]: reduces; binding affinity for human TAS1R3-VFT (human TAS1R3-VFT): millimolar range
OC[C@H]1O[C@@](CO)(O[C@H]2O[C@H](CO)[C@@H](O)[C@H](O)[C@H]2O)[C@@H](O)[C@@H]1O [Sucrose] | 4200 ± 900 | 1 ^e | EC50 ([4]; cellular assays, unpublished data from our laboratory, read-out: EC50): 11000 ± 3000 µM

Source: PMC9409066, “Functional Characterization of the Venus Flytrap Domain of the Human TAS1R2 Sweet Taste Receptor” (International Journal of Molecular Sciences, 2022)
